Where two headings read alike, the source gives them in different places.
Key:
human orexin-1 receptor = target: T1, human orexin-1 receptor (Homo sapiens, UniProt O43613); experiment: Intracellular calcium measurements (FLIPR), orexin receptor antagonistic activity; format: cell-based; conditions: FLIPR Tetra, CHO cells expressing human orexin-1 receptor, 3 nM orexin-A, read-out: OX1 IC50
T1 construct: expressed in transfected cells; host or cells: Chinese hamster ovary (CHO) cells, G418 selection
T1 sequence (O43613 1-425): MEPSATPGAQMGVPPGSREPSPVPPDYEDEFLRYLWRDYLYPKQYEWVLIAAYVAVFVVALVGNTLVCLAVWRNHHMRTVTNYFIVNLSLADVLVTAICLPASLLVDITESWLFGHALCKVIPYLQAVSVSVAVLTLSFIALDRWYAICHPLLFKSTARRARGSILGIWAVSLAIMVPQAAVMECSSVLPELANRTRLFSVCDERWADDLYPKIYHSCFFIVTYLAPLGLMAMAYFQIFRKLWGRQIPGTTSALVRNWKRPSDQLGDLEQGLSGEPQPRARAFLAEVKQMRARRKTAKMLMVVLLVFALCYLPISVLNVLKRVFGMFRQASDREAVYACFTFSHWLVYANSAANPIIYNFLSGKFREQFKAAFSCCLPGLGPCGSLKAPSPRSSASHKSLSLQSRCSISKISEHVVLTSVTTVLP
Description: (§1) The orexin receptor antagonistic activity of the compounds of formula (I) is determined in accordance with one of the following experimental methods.
(§2) Intracellular Calcium Measurements:
(§3) Chinese hamster ovary (CHO) cells expressing the human orexin-1 receptor and the human orexin-2 receptor, respectively, are grown in culture medium (Ham F-12 with L-Glutamine) containing 300 μg/ml G418, 100 U/ml penicillin, 100 μg/ml streptomycin and 10% heat inactivated fetal calf serum (FCS). The cells are seeded at 20'000 cells/well into 384-well black clear bottom sterile plates (Greiner). The seeded plates are incubated overnight at 37° C. in 5% CO2.
(§4) Human orexin-A as an agonist is prepared as 1 mM stock solution in MeOH:water (1:1), diluted in HBSS containing 0.1% bovine serum albumin (BSA), NaHCO3:0.375 g/l and 20 mM HEPES for use in the assay at a final concentration of 3 nM.
(§5) Antagonists are prepared as 10 mM stock solution in DMSO, then diluted in 384-well plates, first in DMSO, then in HBSS containing 0.1% bovine serum albumin (BSA), NaHCO3: 0.375 g/l and 20 mM HEPES.
(§6) On the day of the assay, 50 μl of staining buffer (HBSS containing 1% FCS, 20 mM HEPES, NaHCO3: 0.375 g/l, 5 mM probenecid (Sigma) and 3 μM of the fluorescent calcium indicator fluo-4 AM (1 mM stock solution in DMSO, containing 10% pluronic) is added to each well.
(§7) The 384-well cell-plates are incubated for 50 min at 37° C. in 5% CO2 followed by equilibration at RT for 30-120 min before measurement.
(§8) Within the Fluorescent Imaging Plate Reader (FLIPR2 or FLIPR Tetra, Molecular Devices), antagonists are added to the plate in a volume of 10 μl/well, incubated for 10 min and finally 10 μl/well of agonist is added. Fluorescence is measured for each well at 1 second intervals, and the height of each fluorescence peak is compared to the height of the fluorescence peak induced by 3 nM orexin-A with vehicle in place of antagonist. For each antagonist, the IC50 value (the concentration of compound needed to inhibit 50% of the agonistic response) is determined. With the FLIPR Tetra, non-optimized and optimized conditions were used. Optimized conditions were achieved by adjustment of pipetting speed and cell splitting regime. The calculated IC50 values of the compounds may fluctuate depending on the daily cellular assay performance. Fluctuations of this kind are known to those skilled in the art.

human orexin-2 receptor = target: T2, human orexin-2 receptor (Homo sapiens, UniProt O43614); experiment: as above; format: cell-based; conditions: FLIPR Tetra, CHO cells expressing human orexin-2 receptor, 3 nM orexin-A, read-out: OX2 IC50
T2 construct: expressed in transfected cells; host or cells: Chinese hamster ovary (CHO) cells, G418 selection
T2 sequence (O43614 1-444): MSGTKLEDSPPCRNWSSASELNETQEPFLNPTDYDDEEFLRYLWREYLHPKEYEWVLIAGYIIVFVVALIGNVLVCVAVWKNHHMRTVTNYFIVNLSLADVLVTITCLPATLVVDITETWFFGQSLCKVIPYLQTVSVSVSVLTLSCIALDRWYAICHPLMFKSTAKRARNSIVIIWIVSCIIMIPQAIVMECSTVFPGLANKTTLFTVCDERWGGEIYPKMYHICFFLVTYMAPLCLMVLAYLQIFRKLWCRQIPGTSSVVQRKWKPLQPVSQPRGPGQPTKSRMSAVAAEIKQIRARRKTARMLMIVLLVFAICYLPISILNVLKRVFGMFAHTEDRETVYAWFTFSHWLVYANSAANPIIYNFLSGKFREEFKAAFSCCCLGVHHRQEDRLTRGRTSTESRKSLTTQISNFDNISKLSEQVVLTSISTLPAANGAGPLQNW
Description: as §1, §2, §3, §4, §5, §6, §7, §8

Compound	IC50 (human orexin-1 receptor; non-optimized conditions) [nM]	IC50 (human orexin-2 receptor; non-optimized conditions) [nM]	IC50 (human orexin-1 receptor; optimized conditions) [nM]	IC50 (human orexin-2 receptor; optimized conditions) [nM]
Cc1nc(C(=O)N2C[C@@H]3C[C@@H]3[C@H]2CNc2ncc(Br)cn2)c(-c2ccc(C)c(F)c2)s1 [Example 252, {(1S,2S,5R)-2-[(5-Bromo-pyrimidin-2-ylamino)-methyl]-3-aza-bicyclo[3.1.0]hex-3-yl}-[5-(3-fluoro-4-methyl-phenyl)-2-methyl-thiazol-4-yl]-methanone]	79	350		
Cc1cccc(-c2sc(C)nc2C(=O)N2C[C@@H]3C[C@@H]3[C@H]2CNC(=O)c2cccc3nc(C)oc23)c1 [Example 256, 2-Methyl-benzoxazole-7-carboxylic acid [(1S,2S,5R)-3-(2-methyl-5-m-tolyl-thiazole-4-carbonyl)-3-aza-bicyclo[3.1.0]hex-2-ylmethyl]-amide]			64	55
Cc1cccc(-c2sc(C)nc2C(=O)N2C[C@@H]3C[C@@H]3[C@H]2CNC(=O)c2ccn3ccsc23)c1 [Example 260, Pyrrolo[2,1-b]thiazole-7-carboxylic acid [(1S,2S,5R)-3-(2-methyl-5-m-tolyl-thiazole-4-carbonyl)-3-aza-bicyclo[3.1.0]hex-2-ylmethyl]-amide]			16	31
Cc1ccc(-c2sccc2C(=O)N2C[C@@H]3C[C@@H]3[C@H]2CNC(=O)c2cccc3c2NCCO3)cc1 [Example 266, 3,4-Dihydro-2H-benzo[1,4]oxazine-5-carboxylic acid [(1S,2S,5R)-3-(2-p-tolyl-thiophene-3-carbonyl)-3-aza-bicyclo[3.1.0]hex-2-ylmethyl]-amide]			65	19
Cc1ccc(-c2sccc2C(=O)N2C[C@@H]3C[C@@H]3[C@H]2CNC(=O)c2cccc3nsnc23)cc1 [Example 274, Benzo[2,1,3]thiadiazole-4-carboxylic acid [(1S,2S,5R)-3-(2-p-tolyl-thiophene-3-carbonyl)-3-aza-bicyclo[3.1.0]hex-2-ylmethyl]-amide]			58	55
Cc1cccc(-c2sccc2C(=O)N2C[C@@H]3C[C@@H]3[C@H]2CNC(=O)c2cc3occc3n2C)c1 [Example 282, 4-Methyl-4H-furo[3,2-b]pyrrole-5-carboxylic acid [(1S,2S,5R)-3-(2-m-tolyl-thiophene-3-carbonyl)-3-aza-bicyclo[3.1.0]hex-2-ylmethyl]-amide]			117	32
Cc1cccc(-c2sccc2C(=O)N2C[C@@H]3C[C@@H]3[C@H]2CNC(=O)c2cccc3oc(C)nc23)c1 [Example 297, 2-Methyl-benzoxazole-4-carboxylic acid [(1S,2S,5R)-3-(2-m-tolyl-thiophene-3-carbonyl)-3-aza-bicyclo[3.1.0]hex-2-ylmethyl]-amide]			83	16
Cc1cccc(-c2sc(C)nc2C(=O)N2C[C@@H]3C[C@@H]3[C@H]2CNC(=O)c2cccc3sc(Cl)nc23)c1 [Example 299, 2-Chloro-benzothiazole-4-carboxylic Acid[(1S,2S,5R)-3-(2-methyl-5-m-tolyl-thiazole-4-carbonyl)-3-aza-bicyclo[3.1.0]hex-2-ylmethyl]-amide]			28	14

Source: US8063099B2, “Trans-3-aza-bicyclo[3.1.0]hexane derivatives” (Actelion Pharmaceuticals Ltd., priority 2007, dated 2011)
